# Results published in BindingDB's records for doi:10.1016/j.bioorg.2017.01.015 (Universiti Teknologi MARA (UiTM), 2017).
# Target: T1, Beta-glucuronidase (Homo sapiens, UniProt P08236)
# T1 sequence (P08236 whole entry): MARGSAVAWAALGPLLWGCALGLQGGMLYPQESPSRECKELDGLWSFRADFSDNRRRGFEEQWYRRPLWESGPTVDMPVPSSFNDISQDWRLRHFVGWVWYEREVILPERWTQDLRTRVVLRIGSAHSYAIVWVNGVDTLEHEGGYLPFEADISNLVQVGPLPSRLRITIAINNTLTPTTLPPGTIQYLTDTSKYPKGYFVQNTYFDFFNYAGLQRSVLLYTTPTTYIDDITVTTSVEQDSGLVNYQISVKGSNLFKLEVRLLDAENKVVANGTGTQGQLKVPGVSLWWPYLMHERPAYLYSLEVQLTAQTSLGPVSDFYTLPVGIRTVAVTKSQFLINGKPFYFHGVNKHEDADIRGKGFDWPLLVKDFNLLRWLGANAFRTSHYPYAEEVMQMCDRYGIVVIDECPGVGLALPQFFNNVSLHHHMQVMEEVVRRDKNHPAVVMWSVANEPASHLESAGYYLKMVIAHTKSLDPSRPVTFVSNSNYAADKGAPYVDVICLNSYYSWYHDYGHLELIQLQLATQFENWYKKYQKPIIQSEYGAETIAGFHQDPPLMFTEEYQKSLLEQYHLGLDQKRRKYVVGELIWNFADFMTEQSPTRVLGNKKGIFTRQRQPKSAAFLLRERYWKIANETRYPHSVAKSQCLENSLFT
# Experiment: β-Glucuronidase Assay
# Method: 250 μL was the volume of total reaction. Reaction mixture containing 5 μL of test compound solution, 185 μL of 0.1 M acetate buffer and 10 μL of enzyme solution were incubated for 30 min at 37 °C. […] To avoid precipitation compound concentration were decreased and the volume of reaction was high (200 μL). Precipitation probability was less thus addition of detergents was not needed.
row,SMILES,IC50 [µM]
1,"COc1ccccc1-c1nnc(-c2ccc(C(=O)NNS(=O)(=O)c3ccccc3Br)cc2)o1 [2-Bromo-N'-(4-(5-(2-methoxyphenyl)-1,3,4-oxadiazol-2yl)benzoyl)benzenesulfonohydrazide (7)]",38.5
2,"COc1ccccc1-c1nnc(-c2ccc(C(=O)NNS(=O)(=O)c3ccccc3F)cc2)o1 [2-Fluoro-N'-(4-(5-(2-methoxyphenyl)-1,3,4-oxadiazol-2yl)benzoyl)benzenesulfonohydrazide (4)]",10.3
3,"COc1ccccc1-c1nnc(-c2ccc(C(=O)NNS(=O)(=O)c3cccc(Br)c3)cc2)o1 [3-Bromo-N'-(4-(5-(2-methoxyphenyl)-1,3,4-oxadiazol-2yl)benzoyl)benzenesulfonohydrazide (9)]",58.2
4,"COc1ccccc1-c1nnc(-c2ccc(C(=O)NNS(=O)(=O)c3cccc(F)c3)cc2)o1 [3-Fluoro-N'-(4-(5-(2-methoxyphenyl)-1,3,4-oxadiazol-2yl)benzoyl)benzenesulfonohydrazide (5)]",28.1

# The remaining lines, values ahead:
row,IC50 [µM],SMILES
1,98.1,"COc1ccccc1-c1nnc(-c2ccc(C(=O)NNS(=O)(=O)c3ccc(C)cc3)cc2)o1 [4-methyl-N'-(4-(5-(2-methoxyphenyl)-1,3,4-oxadiazol-2-yl)benzoyl)-4-methylbenzenesulfonohydrazide (15)]"
2,24.3,"COc1ccccc1-c1nnc(-c2ccc(C(=O)NNS(=O)(=O)c3ccccc3C)cc2)o1 [N'-(4-(5-(2-methoxyphenyl)-1,3,4-oxadiazol-2-yl)benzoyl)-2-methylbenzenesulfonohydrazide (14)]"
3,44.7,"COc1ccccc1-c1nnc(-c2ccc(C(=O)NNS(=O)(=O)c3ccccc3[N+](=O)[O-])cc2)o1 [N'-(4-(5-(2-methoxyphenyl)-1,3,4-oxadiazol-2-yl)benzoyl)-2-nitrobenzenesulfonohydrazide (10)]"
4,89.3,"COc1ccccc1-c1nnc(-c2ccc(C(=O)NNS(=O)(=O)c3cccc([N+](=O)[O-])c3)cc2)o1 [N'-(4-(5-(2-methoxyphenyl)-1,3,4-oxadiazol-2-yl)benzoyl)-3-nitrobenzenesulfonohydrazide (12)]"
